The values below come from patent publication US10786505B2, “Administration of NEDD8-activating enzyme inhibitor and chemotherapeutic agents” (Millennium Pharmaceuticals, Inc., priority 2013, dated 2020).

In the experiment the test system is PHTX249Pa xenograft model. Briefly: Combination of gemcitabine and MLN4924 in PHTX249Pa xenograft model. Type of experiment: in vivo, mice. Here is the method: The PHTX249 Pa pancreatic xenograft model was established from a patient-derived tumor collected during surgery from a person with pancreatic adenocarcinoma. […] Gemcitabine (Gemzar, Henry Schein, Inc, Pittsburgh Pa., and Myoderm Medical, Norristown, Pa.) is formulated in 0.9% saline and administered by intraperitoneal injection (IP) q3Dx4 (every 3 days for a total of 4 doses) at 2.5 mg/kg or 10 mg/kg, or by IV injection twice weekly (BIW) at 20 mg/kg IVU. […] Tumors are measured twice weekly using a vernier caliper. […] Tumor size and body weight are measured approximately twice a week for the duration of the study. […] Tumor growth continued to be monitored after the dosing period in some studies. […] Average tumor volume is reported as a function of time for selected groups of selected studies in Figures A, B, and C. Measurements from day 0 to 18, 21 or 22 are analyzed as specified in Tables 4-9. […] For each animal, the log tumor volume at day 0 is subtracted from the log tumor volume on the subsequent days. This difference vs. time is used to calculate an area under the curve (AUC) for each animal using the trapezoid rule. In instances when an animal in a treatment group is removed early from the study, the last observed tumor value is carried forward through all subsequent time points. […] The standard error of the synergy score is computed based on the variation in the AUC values among the animals. […] Otherwise, the combination is classified as antagonistic.

On to `NS(=O)(=O)OC[C@@H]1C[C@@H](n2ccc3c(N[C@H]4CCc5ccccc54)ncnc32)C[C@@H]1O` [MLN4924, ((1S,2S,4R)-4-(4-((1S)-2,3-dihydro-1H-inden-1-ylamino)-7H-pyrrolo[2,3-d]-pyrimidin-7-yl)-2-hydroxycyclopentyl)methyl sulfamate], for which the “average tumor volume day 18” value (PHTX249Pa xenograft, 90 mg/kg MLN4924 BID BIW SC) turned out to be 1748.9 mm^3. Further, the “tumor growth compared to the control vehicle group (in words)” value (PHTX249 Pa xenograft, gemcitabine 20 mg/kg IV BIW, MLN4924 90 mg/kg SC BID BIW, single agents or their combination) is given as “did not show growth inhibition compared to the control vehicle group”.
